# Reference: publication PMC7181131, “N-Pyrazinoyl Substituted Amino Acids as Potential Antimycobacterial Agents—the Synthesis and Biological Evaluation of Enantiomers” (Molecules, 2020)
# Read-outs that look alike come from different tables or passages of the source.
# How the values were obtained:
# [1] = system: Mtb H37Ra ITM-M006710 (ATCC 9431); test: Microplate Alamar Blue Assay (MABA) microdilution, Mtb H37Ra; assay type: cell-based, Mycobacterium tuberculosis; details: Mycobacterium tuberculosis
# [2] = system: M. smegmatis DSM 43465 (ATCC 607); test: Microplate Alamar Blue Assay (MABA) microdilution, M. smegmatis; assay type: cell-based, Mycobacterium smegmatis
# [3] = system: Mycobacterium aurum DSM 43999 (ATCC 23366); test: Microplate Alamar Blue Assay (MABA) microdilution, M. aurum; assay type: cell-based
# [4] = system: HepG2 cell line; test: HepG2 cytotoxicity, CellTiter 96 (MTS) assay; assay type: cell-based, human; details: Homo sapiens, read-out: HepG2 IC50
# [5] = system: Mycobacterium tuberculosis H37Rv CNCTC My 331/88 (ATCC 27294); test: Antimycobacterial pre-screening, microdilution broth, Mtb H37Rv; assay type: cell-based; details: Middlebrook 7H9 broth of declared pH 6.6
# [6] = system: M. kansasii CNCTC My 235/80 (ATCC 12478); test: Antimycobacterial pre-screening, microdilution broth, M. kansasii; assay type: cell-based; details: Mycobacterium kansasii, ATCC12478; Middlebrook 7H9 broth of declared pH 6.6
# [7] = system: M. avium ssp. avium CNCTC My 80/72 (ATCC 15769); test: Antimycobacterial pre-screening, microdilution broth, M. avium; assay type: cell-based; details: Mycobacterium avium, ATCC15769; Middlebrook 7H9 broth of declared pH 6.6
# [8] = system: Staphylococcus epidermidis CCM 4418 (ATCC 12228); test: Antibacterial microdilution broth method, SE; assay type: cell-based; details: 24 h, read-out: MIC SE
# [9] = system: Candida albicans CCM 8320 (ATCC 24433); test: Antifungal microdilution broth method, CA; assay type: cell-based; details: 24 h, read-out: MIC CA
# [10] = system: Candida krusei CCM 8271 (ATCC 6258); test: Antifungal microdilution broth method, CK; assay type: cell-based; details: Pichia kudriavzevii, 24 h, read-out: MIC CK
# [11] = system: Candida parapsilosis CCM 8260 (ATCC 22019); test: Antifungal microdilution broth method, CP; assay type: cell-based; details: Lodderomyces parapsilosis, 24 h, read-out: MIC CP
# [12] = system: Candida tropicalis CCM 8264 (ATCC 750); test: Antifungal microdilution broth method, CT; assay type: cell-based; details: 24 h, read-out: MIC CT
# [13] = system: Aspergillus fumigatus ATCC 204305; test: Antifungal microdilution broth method, AF; assay type: cell-based; details: ATCC204305, 48 h, read-out: MIC AF
# [14] = system: Aspergillus flavus CCM 8363; test: Antifungal microdilution broth method, AFla; assay type: cell-based; details: CCM8363, read after 48 h (filamentous fungi), read-out: MIC AFla
# [15] = system: Lichtheimia corymbifera CCM 8077; test: Antifungal microdilution broth method, LC; assay type: cell-based; details: CCM8077, 48 h, read-out: MIC LC
# [16] = system: Trichophyton interdigitale CCM 8377 (ATCC 9533); test: Antifungal microdilution broth method, TI; assay type: cell-based; details: 48 h, read-out: MIC TI
# [17] = system: Klebsiella pneumoniae CCM 4415 (ATCC 10031); test: Antibacterial microdilution broth method, KP; details: read after 24 h of incubation
# [18] = Solubility in the cultivation medium of the antibacterial and antifungal screening; details: for solubility in the cultivation medium: antibacterial testing medium; for solubility in the medium: antifungal testing medium
# [19] = system: Mycobacterium tuberculosis H37Rv CNCTC My 331/88 (ATCC 27294); set-up: method as in doi:10.3184/030823407×200001; details: study by Pinheiro et al. ref 32; cited from earlier work
# [20] = pH 6.6, read-out: MIC Mtb H37Ra
# [21] = pH 6, calculated from µg/mL, read-out: MIC Mtb H37Ra
# [22] = Mycolicibacterium smegmatis, pH 6, read-out: MIC M. smegmatis µg/mL
# [23] = Mycolicibacterium smegmatis, pH 6.6, read-out: MIC M. smegmatis
# [24] = Mycolicibacterium aurum, pH 6, read-out: MIC M. aurum µg/mL
# [25] = Mycolicibacterium aurum, pH 6.6, read-out: MIC M. aurum
# [26] = Mycolicibacterium smegmatis, pH 6; read-out: MIC M. smegmatis
# [27] = Mycolicibacterium smegmatis, pH 6.6; read-out: MIC M. smegmatis
# [28] = Mycolicibacterium aurum, pH 6; read-out: MIC M. aurum
# [29] = Mycolicibacterium aurum, pH 6.6; read-out: MIC M. aurum
Compound,MIC ([1]; pH 6),"MIC ([1]; pH 6, read-out: MIC Mtb H37Ra)","MIC [1, 20]","MIC [1, 21]","MIC [2, 22]","MIC [2, 23]","MIC [3, 24]","MIC [3, 25]",MIC [5],MIC [6],MIC [7],MIC [8],MIC [9],MIC [10],MIC [11],MIC [12],MIC [13],MIC [14],MIC [15],MIC [16],also measured
"CCOC(=O)[C@H](CC(C)C)NC(=O)c1cnccn1 (racemic) [PC-DL-Leu-Et, ethyl (pyrazine-2-carbonyl)leucinate]",15.6 µg/mL,15.6 µg/mL,250 µg/mL,58.9 µM,≥ 125 µg/mL,250 µg/mL,≥ 125 µg/mL,250 µg/mL,100 µg/mL,> 100 µg/mL,> 100 µg/mL,> 500 µM,> 500 µM,> 500 µM,> 500 µM,> 500 µM,> 500 µM,> 500 µM,> 500 µM,> 500 µM,"MIC ([1]; pH 6, Table 4, read-out: Mtb pH 6 MIC): 59 µM; IC50 ([4]; HepG2, 24 h incubation, CellTiter 96): 788 µM; MIC KP [17]: > 500 µM"
"CC[C@@H](C)[C@@H](NC(=O)c1cnccn1)C(=O)OC [PC-D-Ile-Me, methyl (pyrazine-2-carbonyl)-D-isoleucinate]",250 µg/mL,250 µg/mL,≥ 500 µg/mL,995 µM,,,,,,,,,,,,,,,,,"MIC [2, 26]: 250 µg/mL; MIC [2, 27]: ≥ 500 µg/mL; MIC [3, 28]: 250 µg/mL; MIC [3, 29]: ≥ 500 µg/mL; solubility in the cultivation medium [18]: insoluble; solubility in the medium [18]: insoluble"
"CCOC(=O)[C@H](Cc1ccccc1)NC(=O)c1cnccn1 (racemic) [PC-DL-Phe-Et, ethyl (pyrazine-2-carbonyl)phenylalaninate]",31.2 µg/mL,31.2 µg/mL,250 µg/mL,104 µM,≥ 125 µg/mL,250 µg/mL,62.5 µg/mL,≥ 500 µg/mL,> 100 µg/mL,> 100 µg/mL,> 100 µg/mL,500 µM,> 500 µM,> 500 µM,> 500 µM,> 500 µM,> 500 µM,> 500 µM,> 500 µM,> 500 µM,MIC KP [17]: > 500 µM
"O=C(O)CNC(=O)c1cnccn1 [PC-Gly, (pyrazine-2-carbonyl)glycine]",≥ 125 µg/mL,≥ 125 µg/mL,≥ 500 µg/mL,≥ 690 µM,≥ 125 µg/mL,≥ 500 µg/mL,≥ 125 µg/mL,≥ 500 µg/mL,> 100 µg/mL,> 100 µg/mL,> 100 µg/mL,> 500 µM,> 500 µM,500 µM,> 500 µM,> 500 µM,> 500 µM,> 500 µM,> 500 µM,> 500 µM,MIC KP [17]: > 500 µM
"C[C@@H](NC(=O)c1cnccn1)C(=O)O [PC-D-Ala, (pyrazine-2-carbonyl)-D-alanine]",≥ 125 µg/mL,≥ 125 µg/mL,≥ 500 µg/mL,≥ 640 µM,≥ 125 µg/mL,≥ 500 µg/mL,62.5 µg/mL,≥ 500 µg/mL,> 100 µg/mL,> 100 µg/mL,> 100 µg/mL,> 500 µM,> 500 µM,> 500 µM,> 500 µM,> 500 µM,> 500 µM,> 500 µM,> 500 µM,> 500 µM,MIC KP [17]: > 500 µM
"CCOC(=O)[C@@H](NC(=O)c1cnccn1)C(C)C (racemic) [PC-DL-Val-Et, ethyl (pyrazine-2-carbonyl)valinate]",≥ 125 µg/mL,≥ 125 µg/mL,≥ 500 µg/mL,≥ 497 µM,≥ 125 µg/mL,250 µg/mL,≥ 125 µg/mL,≥ 500 µg/mL,> 100 µg/mL,> 100 µg/mL,> 100 µg/mL,> 500 µM,> 500 µM,> 500 µM,> 500 µM,> 500 µM,> 500 µM,> 500 µM,> 500 µM,> 500 µM,MIC KP [17]: > 500 µM
"COC(=O)[C@H](CC(C)C)NC(=O)c1cnccn1 [PC-L-Leu-Me, methyl (pyrazine-2-carbonyl)-L-leucinate]",≥ 125 µg/mL,≥ 125 µg/mL,250 µg/mL,≥ 497 µM,≥ 125 µg/mL,250 µg/mL,≥ 125 µg/mL,≥ 500 µg/mL,100 µg/mL,> 100 µg/mL,> 100 µg/mL,500 µM,> 500 µM,> 500 µM,> 500 µM,> 500 µM,> 500 µM,> 500 µM,> 500 µM,> 500 µM,MIC KP [17]: > 500 µM
"O=C(N[C@H](CO)C(=O)O)c1cnccn1 [PC-D-Ser, (pyrazine-2-carbonyl)-D-serine]",≥ 250 µg/mL,≥ 250 µg/mL,≥ 500 µg/mL,≥ 1180 µM,125 µg/mL,≥ 500 µg/mL,62.5 µg/mL,≥ 500 µg/mL,> 100 µg/mL,> 100 µg/mL,> 100 µg/mL,> 500 µM,> 500 µM,> 500 µM,> 500 µM,> 500 µM,> 500 µM,> 500 µM,> 500 µM,500 µM,MIC KP [17]: > 500 µM
"COC(=O)C[C@@H](NC(=O)c1cnccn1)C(=O)OC [PC-D-Asp-diMe, dimethyl (pyrazine-2-carbonyl)-D-aspartate]",≥ 125 µg/mL,≥ 125 µg/mL,≥ 125 µg/mL,≥ 468 µM,,≥ 125 µg/mL,,≥ 125 µg/mL,,,,,,,,,,,,,"MIC [2, 26]: ≥ 125 µg/mL; MIC [3, 28]: ≥ 125 µg/mL; solubility in the cultivation medium [18]: insoluble; solubility in the medium [18]: insoluble"
"C=C(NC(=O)c1cnccn1)C(=O)OC [PC-MeAcr, methyl 2-(pyrazine-2-carboxamido)acrylate]",62.5 µg/mL,62.5 µg/mL,15.6 µg/mL,302 µM,≥ 125 µg/mL,31.2 µg/mL,62.5 µg/mL,62.5 µg/mL,50 µg/mL,100 µg/mL,> 100 µg/mL,> 125 µM,> 125 µM,> 125 µM,> 125 µM,> 125 µM,> 125 µM,> 125 µM,> 125 µM,> 125 µM,"MIC ([1]; pH 6, read-out: Mtb pH 6 MIC): 302 µM; IC50 ([4]; HepG2, 24 h): > 500 µM; MIC on Mtb H37Rv [19]: 50 µg/mL"
"CC[C@H](C)[C@H](NC(=O)c1cnccn1)C(=O)OC [PC-L-Ile-Me, methyl (pyrazine-2-carbonyl)-L-isoleucinate]",250 µg/mL,250 µg/mL,≥ 500 µg/mL,995 µM,,,,,,,,,,,,,,,,,"MIC [2, 26]: ≥ 500 µg/mL; MIC [2, 27]: ≥ 500 µg/mL; MIC [3, 28]: ≥ 500 µg/mL; MIC [3, 29]: ≥ 500 µg/mL; solubility in the cultivation medium [18]: insoluble; solubility in the medium [18]: insoluble"
